4 compounds from US20050124637A1, “Compounds and compositions as inhibitors of receptor tyrosine kinase activity” (IRM LLC, priority 2003, published 2005) can be followed below.

SMILES strings stand for the structures.

For one assay, the target named is T1, Flt3 (Homo sapiens, UniProt P36888).
T1 construct: purchased Upstate
T1 sequence (P36888 27-993): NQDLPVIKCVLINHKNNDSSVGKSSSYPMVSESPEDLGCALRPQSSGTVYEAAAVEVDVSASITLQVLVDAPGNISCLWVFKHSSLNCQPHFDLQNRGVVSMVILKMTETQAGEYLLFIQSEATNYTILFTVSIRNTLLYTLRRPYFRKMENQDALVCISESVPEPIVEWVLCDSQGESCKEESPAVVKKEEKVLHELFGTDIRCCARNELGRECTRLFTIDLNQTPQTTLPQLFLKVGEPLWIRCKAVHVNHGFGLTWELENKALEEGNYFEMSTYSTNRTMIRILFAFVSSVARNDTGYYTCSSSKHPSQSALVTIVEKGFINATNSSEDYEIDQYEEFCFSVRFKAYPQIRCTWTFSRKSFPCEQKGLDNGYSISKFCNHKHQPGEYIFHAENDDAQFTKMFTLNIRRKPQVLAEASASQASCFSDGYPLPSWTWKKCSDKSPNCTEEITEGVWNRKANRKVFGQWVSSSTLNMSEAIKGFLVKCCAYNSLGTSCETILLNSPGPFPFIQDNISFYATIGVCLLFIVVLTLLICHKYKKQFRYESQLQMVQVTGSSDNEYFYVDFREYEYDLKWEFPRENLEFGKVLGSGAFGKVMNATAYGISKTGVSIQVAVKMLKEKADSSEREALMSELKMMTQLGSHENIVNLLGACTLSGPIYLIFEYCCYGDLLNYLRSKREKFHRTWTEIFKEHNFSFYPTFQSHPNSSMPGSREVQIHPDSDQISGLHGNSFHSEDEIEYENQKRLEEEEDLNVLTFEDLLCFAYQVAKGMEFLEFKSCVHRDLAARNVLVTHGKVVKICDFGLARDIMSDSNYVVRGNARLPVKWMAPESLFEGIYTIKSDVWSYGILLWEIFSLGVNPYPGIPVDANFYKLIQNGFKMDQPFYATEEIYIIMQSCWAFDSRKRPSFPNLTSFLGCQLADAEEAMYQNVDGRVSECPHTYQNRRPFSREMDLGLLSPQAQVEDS
Description: Upstate KinaseProfiler radio-enzymatic filter binding assay, Flt3. The format is biochemical. The note with it: 10 μM compound; read-out: percentage inhibition, Flt3. On the procedure:
(§1) Compounds of the invention are assessed for their ability to inhibit individual members of a panel of kinases (a partial, non-limiting list of kinases includes: cSRC, Lck, FGFR3, Flt3, TrkB and PFGFRα). The compounds are tested in duplicates at a final concentration of 10 μM following this generic protocol. Note that the kinase buffer composition and the substrates vary for the different kinases included in the “Upstate KinaseProfiler™” panel. Kinase buffer (2.5 μL, 10×-containing MnCl2 when required), active kinase (0.001-0.01 Units; 2.51 μL), specific or Poly(Glu4-Tyr) peptide (5-500 μM or 0.01 mg/ml) in kinase buffer and kinase buffer (50 μM; 5 μL) are mixed in an eppendorf on ice. A Mg/ATP mix (10 μL; 67.5 (or 33.75) mM MgCl2, 450 (or 225) μM ATP and 1 μCi/μl [γ-^32P]-ATP (3000 Ci/mmol)) is added and the reaction is incubated at about 30° C. for about 10 minutes. The reaction mixture is spotted (20 μL) onto a 2 cm×2 cm P81 (phosphocellulose, for positively charged peptide substrates) or Whatman No. 1 (for Poly (Glu4-Tyr) peptide substrate) paper square. The assay squares are washed 4 times, for 5 minutes each, with 0.75% phosphoric acid and washed once with acetone for 5 minutes. The assay squares are transferred to a scintillation vial, 5 ml scintillation cocktail are added and ^32P incorporation (cpm) to the peptide substrate is quantified with a Beckman scintillation counter. Percentage inhibition is calculated for each reaction.

The target of a further assay is T2, TrkB (Homo sapiens, UniProt Q16620).
T2 construct: purchased Upstate
T2 sequence (Q16620 32-822): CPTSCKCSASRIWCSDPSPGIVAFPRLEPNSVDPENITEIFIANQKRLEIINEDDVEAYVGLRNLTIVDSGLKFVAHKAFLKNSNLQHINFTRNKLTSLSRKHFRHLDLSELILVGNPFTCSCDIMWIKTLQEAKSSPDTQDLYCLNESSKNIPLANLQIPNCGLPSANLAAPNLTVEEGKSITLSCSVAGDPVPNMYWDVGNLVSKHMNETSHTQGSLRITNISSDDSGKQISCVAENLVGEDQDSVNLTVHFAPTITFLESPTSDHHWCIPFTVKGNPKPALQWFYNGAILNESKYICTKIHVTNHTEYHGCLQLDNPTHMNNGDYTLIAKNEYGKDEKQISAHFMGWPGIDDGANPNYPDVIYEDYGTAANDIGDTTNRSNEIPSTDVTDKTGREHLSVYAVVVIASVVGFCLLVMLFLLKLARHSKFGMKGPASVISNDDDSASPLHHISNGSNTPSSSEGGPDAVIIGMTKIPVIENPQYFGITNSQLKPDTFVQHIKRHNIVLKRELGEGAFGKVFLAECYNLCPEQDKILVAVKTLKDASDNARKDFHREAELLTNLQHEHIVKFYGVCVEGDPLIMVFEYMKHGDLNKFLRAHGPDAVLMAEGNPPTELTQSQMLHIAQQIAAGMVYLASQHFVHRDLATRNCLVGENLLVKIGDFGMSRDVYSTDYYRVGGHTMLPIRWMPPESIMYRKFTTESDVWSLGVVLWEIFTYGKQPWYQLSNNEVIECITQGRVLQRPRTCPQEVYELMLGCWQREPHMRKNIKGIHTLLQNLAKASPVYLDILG
Description: Upstate KinaseProfiler radio-enzymatic filter binding assay, TrkB. The format is biochemical. The settings on record: 10 μM compound; read-out: percentage inhibition, TrkB. On the procedure: as §1

Another assay concerns the target T3, Bmx (Homo sapiens, UniProt P51813).
T3 construct: purchased Upstate
T3 sequence (P51813 1-675): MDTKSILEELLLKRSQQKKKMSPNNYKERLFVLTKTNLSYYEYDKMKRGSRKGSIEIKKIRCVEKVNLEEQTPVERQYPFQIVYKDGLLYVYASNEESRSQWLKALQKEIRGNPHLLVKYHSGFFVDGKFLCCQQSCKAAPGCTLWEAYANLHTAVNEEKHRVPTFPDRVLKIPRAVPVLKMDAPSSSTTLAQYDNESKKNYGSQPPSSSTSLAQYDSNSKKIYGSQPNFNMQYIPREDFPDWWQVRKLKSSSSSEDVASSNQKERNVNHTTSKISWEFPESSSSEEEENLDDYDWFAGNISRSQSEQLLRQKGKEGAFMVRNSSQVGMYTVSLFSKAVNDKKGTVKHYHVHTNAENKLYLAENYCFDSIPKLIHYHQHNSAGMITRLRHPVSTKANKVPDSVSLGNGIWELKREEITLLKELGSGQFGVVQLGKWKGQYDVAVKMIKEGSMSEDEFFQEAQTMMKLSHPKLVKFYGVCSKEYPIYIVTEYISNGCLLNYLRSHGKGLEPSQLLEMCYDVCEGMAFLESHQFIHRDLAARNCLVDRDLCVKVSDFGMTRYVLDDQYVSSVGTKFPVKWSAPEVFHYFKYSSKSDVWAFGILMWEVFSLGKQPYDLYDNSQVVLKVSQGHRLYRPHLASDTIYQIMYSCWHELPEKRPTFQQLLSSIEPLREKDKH
Briefly: Upstate KinaseProfiler radio-enzymatic filter binding assay, Bmx. Format: biochemical. The note with it: 10 μM compound; read-out: percentage inhibition, Bmx. On the procedure: as §1

For the next assay, the target named is T4, c-Src (Homo sapiens, UniProt P12931).
T4 construct: purchased Upstate
T4 sequence (P12931 whole entry): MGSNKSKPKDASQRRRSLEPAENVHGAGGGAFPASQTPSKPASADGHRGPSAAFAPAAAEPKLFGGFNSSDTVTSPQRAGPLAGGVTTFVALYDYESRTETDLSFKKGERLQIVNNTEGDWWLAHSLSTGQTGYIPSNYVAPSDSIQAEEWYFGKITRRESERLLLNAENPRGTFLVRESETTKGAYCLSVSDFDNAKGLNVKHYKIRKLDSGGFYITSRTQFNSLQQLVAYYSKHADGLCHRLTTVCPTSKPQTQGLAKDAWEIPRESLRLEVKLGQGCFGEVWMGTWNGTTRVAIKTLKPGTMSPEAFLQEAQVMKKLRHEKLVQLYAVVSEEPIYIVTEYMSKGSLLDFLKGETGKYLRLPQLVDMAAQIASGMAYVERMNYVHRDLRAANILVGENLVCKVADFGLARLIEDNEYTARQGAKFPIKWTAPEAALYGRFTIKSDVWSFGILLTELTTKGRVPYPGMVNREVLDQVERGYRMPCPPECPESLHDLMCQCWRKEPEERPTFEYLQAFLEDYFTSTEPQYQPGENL
Briefly: Upstate KinaseProfiler radio-enzymatic filter binding assay, c-Src. Format: biochemical. The settings on record: 10 μM compound; read-out: percentage inhibition, c-Src. On the procedure: as §1

In the next assay the target is T5, Abl (Homo sapiens, UniProt P00519).
T5 construct: purchased Upstate
T5 sequence (P00519 whole entry, species assumed): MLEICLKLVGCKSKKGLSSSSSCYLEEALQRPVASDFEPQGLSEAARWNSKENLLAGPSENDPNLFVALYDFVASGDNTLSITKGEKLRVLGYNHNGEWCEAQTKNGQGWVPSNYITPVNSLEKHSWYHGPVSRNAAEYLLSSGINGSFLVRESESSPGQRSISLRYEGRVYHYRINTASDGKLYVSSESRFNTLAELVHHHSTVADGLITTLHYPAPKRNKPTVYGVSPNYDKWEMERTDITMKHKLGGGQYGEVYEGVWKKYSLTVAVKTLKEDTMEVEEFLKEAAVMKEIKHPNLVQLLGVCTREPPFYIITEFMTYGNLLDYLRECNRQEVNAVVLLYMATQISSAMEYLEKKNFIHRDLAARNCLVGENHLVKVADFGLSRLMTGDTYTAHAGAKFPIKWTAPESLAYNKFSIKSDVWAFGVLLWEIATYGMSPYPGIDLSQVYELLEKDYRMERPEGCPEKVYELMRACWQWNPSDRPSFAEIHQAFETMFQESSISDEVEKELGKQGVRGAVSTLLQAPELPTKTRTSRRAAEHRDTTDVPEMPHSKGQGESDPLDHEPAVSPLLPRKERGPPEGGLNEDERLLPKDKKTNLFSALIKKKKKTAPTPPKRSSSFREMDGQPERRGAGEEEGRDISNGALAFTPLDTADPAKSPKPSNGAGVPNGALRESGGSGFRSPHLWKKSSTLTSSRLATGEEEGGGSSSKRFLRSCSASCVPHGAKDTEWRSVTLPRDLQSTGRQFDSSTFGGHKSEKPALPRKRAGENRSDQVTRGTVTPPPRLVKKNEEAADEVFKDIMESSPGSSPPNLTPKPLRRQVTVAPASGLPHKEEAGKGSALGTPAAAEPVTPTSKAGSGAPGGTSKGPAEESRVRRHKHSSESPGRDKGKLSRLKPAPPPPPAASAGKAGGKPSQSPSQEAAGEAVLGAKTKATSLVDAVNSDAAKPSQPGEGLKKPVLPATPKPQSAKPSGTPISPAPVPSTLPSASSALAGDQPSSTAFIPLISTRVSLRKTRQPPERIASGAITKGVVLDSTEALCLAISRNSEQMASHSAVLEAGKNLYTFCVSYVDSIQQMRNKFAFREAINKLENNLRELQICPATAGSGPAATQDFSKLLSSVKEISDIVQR
Description: Upstate KinaseProfiler radio-enzymatic filter binding assay, Abl. The format is biochemical. The settings on record: 10 μM compound; read-out: percentage inhibition, Abl. On the procedure: (§2) Compounds of the invention are assessed for their ability to inhibit individual members of a panel of kinases (a partial, non-limiting list of kinases includes: cSRC, Lck, FGFR3, Flt3, TrkB and PFGFRα). The compounds are tested in duplicates at a final concentration of 10 μM following this generic protocol. Note that the kinase buffer composition and the substrates vary for the different kinases included in the “Upstate KinaseProfiler™” panel. Kinase buffer (2.5 μL, 10×-containing MnCl2 when required), active kinase (0.001-0.01 Units; 2.51 μL), specific or Poly(Glu4-Tyr) peptide (5-500 μM or 0.01 mg/ml) in kinase buffer and kinase buffer (50 μM; 5 μL) are mixed in an eppendorf on ice. A Mg/ATP mix (10 μL; 67.5 (or 33.75) mM MgCl2, 450 (or 225) μM ATP and 1 μCi/μl [γ-^32P]-ATP (3000 Ci/mmol)) is added and the reaction is incubated at about 30° C. for about 10 minutes. […] The assay squares are transferred to a scintillation vial, 5 ml scintillation cocktail are added and ^32P incorporation (cpm) to the peptide substrate is quantified with a Beckman scintillation counter. Percentage inhibition is calculated for each reaction.

Another assay has as its target T6, Lck (Homo sapiens, UniProt P06239).
T6 construct: purchased Upstate
Briefly: Upstate KinaseProfiler radio-enzymatic filter binding assay, Lck. The format is biochemical. The settings on record: 10 μM compound; read-out: percentage inhibition, Lck. On the procedure:
as §1

In a further assay the target is T7, Rsk1 (Homo sapiens, UniProt Q15418).
T7 construct: purchased Upstate
T7 sequence (Q15418 whole entry, species assumed): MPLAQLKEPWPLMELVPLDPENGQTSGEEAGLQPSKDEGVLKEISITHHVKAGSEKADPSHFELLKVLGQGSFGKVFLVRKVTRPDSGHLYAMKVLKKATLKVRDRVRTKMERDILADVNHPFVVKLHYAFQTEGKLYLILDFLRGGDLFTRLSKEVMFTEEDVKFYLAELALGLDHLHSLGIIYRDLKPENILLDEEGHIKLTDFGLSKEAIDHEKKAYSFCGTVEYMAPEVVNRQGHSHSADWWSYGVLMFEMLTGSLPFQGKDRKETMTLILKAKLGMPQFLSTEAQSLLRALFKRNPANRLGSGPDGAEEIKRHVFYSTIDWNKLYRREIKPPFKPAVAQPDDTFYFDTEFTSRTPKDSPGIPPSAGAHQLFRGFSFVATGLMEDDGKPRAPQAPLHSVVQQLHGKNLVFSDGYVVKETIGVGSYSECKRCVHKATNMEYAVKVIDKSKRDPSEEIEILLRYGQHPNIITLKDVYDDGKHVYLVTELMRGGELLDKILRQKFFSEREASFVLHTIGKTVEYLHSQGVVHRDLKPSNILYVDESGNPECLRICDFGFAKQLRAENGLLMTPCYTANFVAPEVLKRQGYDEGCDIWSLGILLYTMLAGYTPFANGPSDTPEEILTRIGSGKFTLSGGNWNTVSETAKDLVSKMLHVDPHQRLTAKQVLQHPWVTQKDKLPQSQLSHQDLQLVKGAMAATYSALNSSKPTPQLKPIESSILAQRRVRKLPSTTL
Briefly: Upstate KinaseProfiler radio-enzymatic filter binding assay, Rsk1. The format is biochemical. The note with it: 10 μM compound; read-out: percentage inhibition, Rsk1. On the procedure: as §2

The next assay addresses T8, FGFR3 (Homo sapiens, UniProt P22607).
T8 construct: purchased Upstate
Briefly: Upstate KinaseProfiler radio-enzymatic filter binding assay, FGFR3. The format is biochemical. The settings on record: 10 μM compound; read-out: percentage inhibition, FGFR3. On the procedure: as §2

A further assay concerns the target T9, purified GST-Flt-3 (Homo sapiens, UniProt P36888).
T9 sequence (P36888 27-993): T1 sequence (P36888 27-993)
Briefly: Flt-3 tyrosine protein kinase assay, 33P incorporation from γ-33P-ATP into poly-EY. The format is biochemical. The settings on record: purified GST-Flt-3, 10 μM ATP; read-out: IC50 in the assay described in example 13. On the procedure:
The activity is assayed in the presence or absence of different concentrations of inhibitors, by measuring the incorporation of ^33P from γ-^33P-ATP into appropriate substrates.
Tyrosine protein kinase assay with purified GST-Flt-3 is carried out in a final volume of 40 μL containing 500 ng of enzyme in kinase buffer (30 mM Tris-HCl (pH7.5), 3 mM MnCl2, 15 mM MgCl2, 1.5 mM DTT, 15 μM Na3VO4, 7.5 mg/ml PEG, 0.25 μM poly-EY(Glu, Tyr), 1% DMSO (at highest concentration of compound), 10 μM ATP and γ-^33P-ATP (0.1 μCi)). Two solutions are made: the first solution of 10 μl contains the Flt-3 enzyme and the inhibitor. The second solution contains the substrate (poly-EY), ATP, and γ-^33P-ATP in 30 μl of kinase buffer. Both solutions are mixed on 96-well PVDF filter plates (Millipore, Bedford, Mass., USA), previously wetted with 70% ethanol and rinsed with 1M Tris (7.4). The reaction is incubated at room temperature for 20 minutes, stopped with 0.1% phosphoric acid and then filtered through the plate using a vacuum manifold, allowing the substrate to bind to the membrane. The plates are then washed 5 times with 0.1% phosphoric acid, mounted in Packard TopCount 96-well adapter plate, and 50 μL of Microscint™ (Packard) is added to each well before counting. […]

The next assay concerns Ba/F3-Flt3-ITD cells. Briefly: Ba/F3-Flt3-ITD cell proliferation/cytotoxicity (Yo-Pro). The note with it: Ba/F3 cells dependent on mutant Flt3, 48 hours, read-out: IC50 in the assay described by example 14. Format: cell-based. From the text:
Compounds that have differential activity (more than or equal to 10 fold difference in sensitivity between Flt3+ cell lines and Flt3− cell lines are selected for further study.
The cell lines used for the initial screening are sub-lines of Ba/F3 cells that are engineered to over-express mutant or wild-type (non-mutated) Flt3 following infection with a retrovirus expressing appropriate Flt3 cDNAs. The parent cell line, Ba/F3 is dependent on interleukin-3 for proliferation, and when deprived of IL-3, the cells rapidly cease proliferation and die. The retrovirus expresses Flt3 from the retrovirual LTR and the neo gene from an IRES site. Ba/F3 cells are selected in G418 and analyzed for expression of Flt3 by fluorescence activated cell sorting (FACS). Cell lines with two different Flt3 mutations are used. One mutant expresses a Flt-3 that has a 14 amino acid duplication in the juxtamembrane domain encoded by exon 11, the specific duplication being . . . VDFREYEYDLKWEF . . . […]
Yo-Pro-1 iodide (Molecular Probes) is added to the cells at a final concentration of 2.5 μM in NaCl/Na-citrate buffer. The cells are incubated with Yo-Pro for 10 minutes at room temperature and then read on a fluorimeter for determination of cytotoxicity. Next, the cells are lysed with NP40/EDTA/EGTA buffer, incubated at room temperature for 90 minutes and read for the determination of proliferation. […]

T6 sequence (P06239 whole entry): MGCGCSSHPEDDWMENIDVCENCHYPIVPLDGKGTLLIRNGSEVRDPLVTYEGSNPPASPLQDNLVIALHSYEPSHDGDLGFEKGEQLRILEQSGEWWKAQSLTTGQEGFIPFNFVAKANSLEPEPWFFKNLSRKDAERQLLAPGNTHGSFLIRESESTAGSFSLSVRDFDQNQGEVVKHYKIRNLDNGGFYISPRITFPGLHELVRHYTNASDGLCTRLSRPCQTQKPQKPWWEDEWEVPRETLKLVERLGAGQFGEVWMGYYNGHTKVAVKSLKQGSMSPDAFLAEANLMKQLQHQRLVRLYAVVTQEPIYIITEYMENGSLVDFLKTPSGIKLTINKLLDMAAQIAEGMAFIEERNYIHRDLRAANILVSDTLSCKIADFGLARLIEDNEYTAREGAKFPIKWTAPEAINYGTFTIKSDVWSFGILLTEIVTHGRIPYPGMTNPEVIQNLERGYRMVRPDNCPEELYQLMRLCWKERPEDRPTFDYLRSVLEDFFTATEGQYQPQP
T8 sequence (P22607 23-806): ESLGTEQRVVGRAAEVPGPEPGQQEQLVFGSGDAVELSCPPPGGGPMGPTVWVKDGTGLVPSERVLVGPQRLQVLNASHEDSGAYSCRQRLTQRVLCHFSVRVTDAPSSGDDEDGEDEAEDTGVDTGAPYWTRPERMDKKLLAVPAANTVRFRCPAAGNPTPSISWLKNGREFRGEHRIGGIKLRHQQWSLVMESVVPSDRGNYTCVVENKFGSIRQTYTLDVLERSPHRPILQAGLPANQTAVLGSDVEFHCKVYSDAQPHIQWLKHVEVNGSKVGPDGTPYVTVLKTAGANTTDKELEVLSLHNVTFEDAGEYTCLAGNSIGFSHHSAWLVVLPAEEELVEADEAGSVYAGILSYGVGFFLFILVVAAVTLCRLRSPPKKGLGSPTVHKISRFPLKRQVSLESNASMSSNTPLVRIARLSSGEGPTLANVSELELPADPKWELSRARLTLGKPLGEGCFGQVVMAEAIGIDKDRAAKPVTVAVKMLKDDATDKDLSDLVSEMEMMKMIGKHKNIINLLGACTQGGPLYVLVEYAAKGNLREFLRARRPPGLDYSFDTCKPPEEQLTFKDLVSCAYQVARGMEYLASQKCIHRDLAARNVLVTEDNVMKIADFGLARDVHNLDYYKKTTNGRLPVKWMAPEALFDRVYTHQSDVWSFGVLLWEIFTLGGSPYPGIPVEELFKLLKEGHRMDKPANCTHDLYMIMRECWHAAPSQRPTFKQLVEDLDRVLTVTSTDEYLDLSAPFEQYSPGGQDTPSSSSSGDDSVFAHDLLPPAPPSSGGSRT

As for `CS(=O)(=O)c1ccc(Nc2nc(N3CCOCC3)nc3c2ncn3-c2cscn2)cc1` [Compound 503, (4-Methanesulfonyl-phenyl)-(2-morpholin-4-yl-9-thiazol-4-yl-9H-purin-6-yl)-amine], the inhibition (in general, the percentage by which the read-out fell short of the control) at 10 µM on Flt3 is 99%; on TrkB, 99%; on Bmx, 71%; on c-Src, 98%; on Abl it was 81%; on Lck, 99%.
For the compound `CN1CCC(N(C)c2nc(Nc3ccc(N4CCOCC4)cc3)c3ncn(-c4cscn4)c3n2)CC1` [Compound 539, N^2-Methyl-N^2-(1-methyl-piperidin-4-yl)-N^6-(4-morpholin-4-yl-phenyl)-9-thiazol-4-yl-9H-purine-2,6-diamine], the inhibition at 10 µM turned out to be 100% on Flt3; 99% on TrkB; 90% at Bmx; 97% on c-Src; 99% on Lck; 82% at Rsk1.
On to `CS(=O)(=O)c1ccc(Nc2nc(NCc3ccccn3)nc3c2ncn3-c2cscn2)cc1` [Compound 554, N^6-(4-Methanesulfonyl-phenyl)-N^2-pyridin-2-ylmethyl-9-thiazol-4-yl-9H-purine-2,6-diamine], for which the inhibition at 10 µM on FGFR3 was determined as 98%; at Flt3, 100%; at TrkB, 99%; at Bmx, 86%; at c-Src, 99%; at Abl, 98%. In addition, on Lck, the inhibition at 10 µM turned out to be 95%.
Consider `NC1CCC(Nc2nc(Nc3ccc(C(=O)N4CCCCC4)cc3)c3ncn(-c4ccsc4)c3n2)CC1` (stereo not drawn) [{4-[2-(4-amino-cyclohexylamino)-9-thiophen-3-yl-9H-purin-6-ylamino]-phenyl}-piperidin-1-yl-methanone], for which the IC50 (commonly the midpoint of a concentration-inhibition curve) on purified GST-Flt-3 is 7 nM; with Ba/F3-Flt3-ITD cells, 5 nM.
